# Measurements taken from article PMC13352219, “Analysis of glutamine synthetase target‐site mutations and their role in endowing glufosinate‐ammonium resistance” (Pest Management Science, 2026).
# “And” between values parts separate entries of the source, which are not always exact repeats. Identical values can stand only once.
# Experiments:
# [1] = test system: Amaranthus palmeri cytosolic GS1.1 E297S; experiment: GS enzyme inhibition assay, GS1.1 E297S; assay type: biochemical; settings: IC50 variant / IC50 WT
# Method: (§1) GS activity was determined spectrophotometrically following the Sigma‐Aldrich enzymatic assay protocol. The reaction couples the ATP‐dependent conversion of L‐glutamate and ammonium to L‐glutamine with pyruvate kinase (PK) and L‐lactate dehydrogenase (LDH), such that oxidation of β‐NADH to β‐NAD^+ can be monitored at 340 nm. Recombinant GS from A. palmeri was expressed in E. coli, purified by affinity chromatography, and quantified by the Bradford method using bovine serum albumin as standard. […] Reaction mixtures were equilibrated to 37°C and initiated by the addition of enzyme, and the decrease in absorbance at 340 nm was recorded for 5–10 min; only the linear portion of the curve was used for activity calculations. […] Activity was calculated using an extinction coefficient for NADH of 6.22 mM^−1 cm^−1 and expressed as units per mg protein, where one unit corresponds to the formation of 1 μmol of L‐glutamine in […] at pH 7.1 and 37 °C. […] Percent inhibition was calculated relative to untreated (positive) and no‐enzyme (negative) controls. […] Resistance factors were calculated by dividing the IC₅₀ of each mutant variant by that of wild‐type GS.
# [2] = test system: Amaranthus palmeri cytosolic GS1.1 V161S; experiment: GS enzyme inhibition assay, GS1.1 V161S; assay type: biochemical
# Method: as §1
# [3] = test system: Amaranthus palmeri cytosolic GS1.1 K165S; experiment: GS enzyme inhibition assay, GS1.1 K165S; assay type: biochemical
# Method: as §1
# [4] = test system: Amaranthus palmeri cytosolic GS1.1 A309L; experiment: GS enzyme inhibition assay, GS1.1 A309L; assay type: biochemical
# Method: as §1
# [5] = target: Eleusine indica GS1.1 S59G; experiment: GS enzyme inhibition assay, ELEIN GS1.1 S59G; assay type: biochemical
# [6] = test system: Amaranthus palmeri cytosolic GS1.1 H249L; experiment: GS enzyme inhibition assay, GS1.1 H249L; assay type: biochemical
# Method: as §1
# [7] = target: Amaranthus palmeri GS2.2 wild‐type (WT); experiment: GS enzyme inhibition assay, GS2.2 wild-type; assay type: biochemical; settings: GS2.2 WT
# Method: as §1
# [8] = test system: Amaranthus palmeri cytosolic GS1.1 K36A; experiment: GS enzyme inhibition assay, GS1.1 K36A; assay type: biochemical
# Method: as §1
# [9] = test system: Amaranthus palmeri cytosolic GS1.1 S58M; experiment: GS enzyme inhibition assay, GS1.1 S58M; assay type: biochemical
# Method: as §1
# [10] = test system: Amaranthus palmeri cytosolic GS1.1 R291C; experiment: GS enzyme inhibition assay, GS1.1 R291C; assay type: biochemical
# Method: as §1
# [11] = test system: Amaranthus palmeri cytosolic GS1.1 E69L; experiment: GS enzyme inhibition assay, GS1.1 E69L; assay type: biochemical
# Method: as §1
# [12] = test system: Amaranthus palmeri cytosolic GS1.1 S174E; experiment: GS enzyme inhibition assay, GS1.1 S174E; assay type: biochemical
# Method: as §1
# [13] = test system: Amaranthus palmeri cytosolic GS1.1 Y158T; experiment: GS enzyme inhibition assay, GS1.1 Y158T; assay type: biochemical
# Method: as §1
# [14] = test system: Amaranthus palmeri cytosolic GS1.1 T60Q; experiment: GS enzyme inhibition assay, GS1.1 T60Q; assay type: biochemical
# Method: as §1
# [15] = test system: Amaranthus palmeri cytosolic GS1.1 E192K; experiment: GS enzyme inhibition assay, GS1.1 E192K; assay type: biochemical
# Method: as §1
# [16] = test system: Amaranthus palmeri cytosolic GS1.1 G155F; experiment: GS enzyme inhibition assay, GS1.1 G155F; assay type: biochemical
# Method: as §1
# [17] = test system: Amaranthus palmeri cytosolic GS1.1 H249N; experiment: GS enzyme inhibition assay, GS1.1 H249N; assay type: biochemical
# Method: as §1
# [18] = test system: Amaranthus palmeri cytosolic GS1.1 E131D; experiment: GS enzyme inhibition assay, GS1.1 E131D; assay type: biochemical
# Method: as §1
# [19] = test system: Amaranthus palmeri cytosolic GS1.1 E131G; experiment: GS enzyme inhibition assay, GS1.1 E131G; assay type: biochemical
# Method: as §1
# [20] = test system: GFA‐resistant E. indica population; parameters: method as in ref 10 = [10]; 10 Jalaludin A , Ngim J , Bakar BH and Alias Z , Preliminary findings of potentially resistant goosegrass ( Eleusine indica ) to glufosinate ammonium in Malaysia . Weed Biol Manage 10 : 256 – 260 ( 20); settings: cited from earlier work
# [21] = test system: Amaranthus palmeri cytosolic GS1.1 G162N; experiment: GS enzyme inhibition assay, GS1.1 G162N; assay type: biochemical
# Method: as §1
# [22] = test system: Amaranthus palmeri cytosolic GS1.1 R316A; experiment: GS enzyme inhibition assay, GS1.1 R316A; assay type: biochemical
# Method: as §1
# [23] = test system: A. palmeri population from Arkansas (CCR); parameters: method as in ref 16 = [16]; 16 Priess GL , Norsworthy JK , Godara N , Mauromoustakos A , Butts TR , Roberts TL et al ., Confirmation of glufosinate‐resistant palmer amaranth and response to other herbicides . Weed Technol 36 : 3; settings: CCR population compared with susceptible standards; listed as GFA; cited from earlier work
# [24] = test system: Amaranthus palmeri cytosolic GS1.1 R316E; experiment: GS enzyme inhibition assay, GS1.1 R316E; assay type: biochemical
# Method: as §1
# [25] = read-out: Glufosinate‐ammonium IC50
compound,measurement,setting,value
CP(=O)(O)CCC(N)C(=O)O (stereo not shown) [Glufosinate‐ammonium],Resistance index (RI),[1],0.0
same,Resistance index (RI),[2]; IC50 variant / IC50 WT,1.8
same,IC50,[2]; [25],39 µM
same,Resistance index (RI),[3]; IC50 variant / IC50 WT,0.3
same,IC50,[3]; [25],7.6 µM
same,Resistance index (RI),[4]; IC50 variant / IC50 WT,9.4
same,IC50,[4]; [25],204 µM
same,IC50,[5],19 µM
same,Glufosinate‐ammonium % Inhibition at saturation 10 000 μM,[6]; 10 000 μM,7.8%
same,IC50,[6]; [25],> 10000 µM
same,IC50,[7],110 µM
same,Resistance index (RI),[8]; IC50 variant / IC50 WT,11.5
same,IC50,[8]; [25],248 µM
same,Resistance index (RI),[9]; IC50 variant / IC50 WT,4.3
same,IC50,[9]; [25],94 µM
same,Glufosinate‐ammonium % Inhibition at saturation 10 000 μM,[10]; 10 000 μM,0%
same,IC50,[10]; [25],> 10000 µM
same,Resistance index (RI),[11]; IC50 variant / IC50 WT,11.4
same,IC50,[11]; [25],246 µM
same,Resistance index (RI),[12]; IC50 variant / IC50 WT,0.0
same,IC50,[12]; [25],1 µM
same,Resistance index (RI),[13]; IC50 variant / IC50 WT,3.5
same,IC50,[13]; [25],76 µM
same,Resistance index (RI),[14]; IC50 variant / IC50 WT,16.9
same,IC50,[14]; [25],366 µM
same,Glufosinate‐ammonium % Inhibition at saturation 10 000 μM,[15]; 10 000 μM,1.3%
same,IC50,[15]; [25],> 10000 µM
same,Resistance index (RI),[16]; IC50 variant / IC50 WT,11.7
same,IC50,[16]; [25],254 µM
same,Glufosinate‐ammonium % Inhibition at saturation 10 000 μM,[17]; 10 000 μM,17%
same,IC50,[17]; [25],> 10000 µM
same,Glufosinate‐ammonium % Inhibition at saturation 10 000 μM,[18]; 10 000 μM,48%
same,IC50,[18]; [25],> 10000 µM
same,Glufosinate‐ammonium % Inhibition at saturation 10 000 μM,[19]; 10 000 μM,7.2%
same,IC50,[19]; [25],> 10000 µM
same,resistance,[20],up to 20 fold
same,Resistance index (RI),[21]; IC50 variant / IC50 WT,22.6
same,IC50,[21]; [25],489 µM
same,Resistance index (RI),[22]; IC50 variant / IC50 WT,14.4
same,IC50,[22]; [25],313 µM
same,resistance indices,[23],5.1 and 5.9
same,Resistance index (RI),[24]; IC50 variant / IC50 WT,9.1
same,IC50,[24]; [25],197 µM
